Laboratory results from US10258039B2, “Substituted pyrazolylpyrazole derivative and use of same as herbicide” (KYOYU AGRI CO., LTD., priority 2015, dated 2019).

Legend:
Format in all cases: in vivo
[1] = test system: Digitaria ciliaris; experiment: Farming soil treatment test; settings: soil surface spray prior to weed growth, 30 days, 30° C.
Description: (§1) 2. Farming Soil Treatment Test
(§2) Field soil was filled into a 1/6000 are pot followed by seeding with Digitaria ciliaris, Chenopodium album and Amaranthus retroflexus and covering with soil.
(§3) Wettable powders of compounds of formula (I) shown in Table 1 prepared in compliance with the preparation examples were diluted with water to the prescribed amount of chemical and uniformly sprayed onto each soil surface layer using 100 liters of sprayed water per 10 are prior to weed growth following seeding.
(§4) After treating for 30 days in a glass greenhouse at an average atmospheric temperature of 30° C., the herbicidal efficacy thereof was investigated.
(§5) Evaluation of herbicidal efficacy was carried out in the same manner as the above-mentioned Test Example 1.

[2] = test system: Amaranthus retroflexus; experiment: Farming soil treatment test; settings: soil surface spray prior to weed growth, 30 days, 30° C.
Description: as §1, §2, §3, §4, §5

[3] = test system: Chenopodium album; experiment: Farming soil treatment test; settings: soil surface spray prior to weed growth, 30 days, 30° C.
Description: as §1, §2, §3, §4, §5

[4] = test system: Scirpus juncoides; experiment: Paddy herbicidal activity test; settings: irrigated paddy pot, 30 days, 30° C.
Description: (§6) 1. Paddy Herbicidal Activity Test
(§7) Rice paddy soil was filled into a 1/10000 are pot followed by the addition of suitable amounts of water and chemical fertilizer, kneading, seeding with Echinochloa crus-galli, Monochoria vaginalis and Scirpus juncoides and maintaining in an irrigated state at a water depth of 3 cm.
(§8) Wettable powders of Target Compound (I) shown in. Table 1 prepared in compliance with the preparation examples were diluted with a suitable amount of water, rice plants in the 2.0 leaf stage were transplanted during 3.5 leaf stage of Echinochloa crus-galli, and treated by dropping in chemical in the prescribed amount per 10 are using a pipette.
as §4
(§9) Evaluation of herbicidal efficacy was carried out by comparing growth inhibition rate (%) with an untreated group, while evaluation of phytotoxicity was carried out by comparing growth inhibition rate (%) with the state of a complete eradication group, and were evaluated at 11 levels indicated below.

[5] = test system: Echinochloa crus-galli; experiment: Paddy herbicidal activity test; settings: irrigated paddy pot, treated at 3.5 leaf stage of Echinochloa crus-galli, 30 days, 30° C.
Description: as §6, §7, §8, §4, §9

[6] = test system: Monochoria vaginalis; experiment: Paddy herbicidal activity test; settings: irrigated paddy pot, 30 days, 30° C.
Description: as §6, §7, §8, §4, §9

[7] = test system: Oryza sativa; experiment: Paddy herbicidal activity test, phytotoxicity to transplanted rice; settings: rice transplanted at 2.0 leaf stage, 30 days, 30° C.
Description: as §6, §7, §8, §4, §9

[8] = test system: Digitaria ciliaris; experiment: Weed foliar treatment test (Test 3, 1.0 to 2.0 leaf stage); settings: foliar spray at 1.0 to 2.0 leaf stage of Digitaria ciliaris, 3 weeks, 25° C.
Description: (§10) 3. Weed Foliar Treatment Test
(§11) Soil was filled into a 1/6000 are pot followed by seeding with Digitaria ciliaris, Chenopodium album and Amaranthus retroflexus, covering with soil, and cultivating in a glass greenhouse at an average atmospheric temperature of 25° C.
(§12) Wettable powders of Target Compound (I) shown in Table 1 prepared in compliance with the preparation examples were diluted with water to the prescribed amount of chemical and uniformly sprayed onto the weeds using 150 liters of sprayed water per 10 are when Digitaria ciliaris had grown to the 1.0 to 2.0 leaf stage.
(§13) After treating for 3 weeks in a glass greenhouse at an average atmospheric temperature of 25° C., the herbicidal efficacy thereof was investigated.
as §5

[9] = test system: Amaranthus retroflexus; experiment: as above; settings: foliar spray at 1.0 to 2.0 leaf stage of Digitaria ciliaris, 3 weeks, 25° C.
Description: as §10, §11, §12, §13, §5

[10] = test system: Chenopodium album; experiment: as above; settings: foliar spray at 1.0 to 2.0 leaf stage of Digitaria ciliaris, 3 weeks, 25° C.
Description: as §10, §11, §12, §13, §5

[11] = test system: Digitaria ciliaris; experiment: Weed foliar treatment test (Test 4, 4.0 to 5.0 leaf stage); settings: 10g a.i./10a; foliar spray at 4.0 to 5.0 leaf stage of Digitaria ciliaris (plant height 10 cm to 15 cm); 20 days, 25° C.
Description: (§14) 4. Weed Foliar Treatment Test
(§15) Field soil was filled into a 1/4500 are pot followed by seeding with Digitaria ciliaris and Galinsoga parviflora, covering with soil and cultivating in a glass greenhouse at an average atmospheric temperature of 25° C.
as §12, with “100” for “150”, “4.0” for “1.0”, “5.0” for “2.0”, “stage (plant height: 10 cm to 15 cm).” for “stage.”
(§16) After treating for 20 days in a glass greenhouse at an average atmospheric temperature of 25° C., the herbicidal efficacy thereof was investigated.
as §5

[12] = test system: Galinsoga parviflora; experiment: as above; settings: 10g a.i./10a; foliar spray at 4.0 to 5.0 leaf stage of Digitaria ciliaris; 20 days, 25° C.
Description: as §14, §15
as §12, with “100” for “150”, “4.0” for “1.0”, “5.0” for “2.0”, “stage (plant height: 10 cm to 15 cm).” for “stage.”
as §16, §5

Row | Structure (SMILES) | herbicidal efficacy, Digitaria ciliaris ([1]; 5g a.i./10a) | herbicidal efficacy, Digitaria ciliaris ([1]; 10g a.i./10a) | herbicidal efficacy, Amaranthus retroflexus ([2]; 5g a.i./10a) | herbicidal efficacy, Amaranthus retroflexus ([2]; 10g a.i./10a) | herbicidal efficacy, Chenopodium album ([3]; 5g a.i./10a) | herbicidal efficacy, Chenopodium album ([3]; 10g a.i./10a) | herbicidal efficacy, Digitaria ciliaris [11] | herbicidal efficacy, Galinsoga parviflora [12] | further results
1 | CN(C(=O)CC1CC1)c1c(C#N)cnn1-c1nn2c(c1Cl)CCCC2 [Compound 1, Methyl N-(1-(3-chloro-4,5,6,7-tetrahydropyrazolo[1,5-a]pyridin-2-yl)4-cyanopyrazol-5-yl)-2-cyclopropyl Acetoamide] | 9 (9: 90% to less than 100%) | 10 (10: 100%) | 10 (10: 100%) | 10 (10: 100%) | 10 (10: 100%) | 10 (10: 100%) |  |  | 
2 | O=C(Nc1c([N+](=O)[O-])cnn1-c1nn2c(c1Cl)CCCC2)C1CC1 [Compound 2] | 9 (9: 90% to less than 100%) | 9 (9: 90% to less than 100%) | 10 (10: 100%) | 10 (10: 100%) | 9 (9: 90% to less than 100%) | 9 (9: 90% to less than 100%) | 10 (10: 100%) | 10 (10: 100%) | herbicidal efficacy, Scirpus juncoides ([4]; 1g a.i./10a): 9 (9: 90% to less than 100%); herbicidal efficacy, Scirpus juncoides ([4]; 5g a.i./10a): 9 (9: 90% to less than 100%); herbicidal efficacy, Echinochloa crus-galli ([5]; 1g a.i./10a): 10 (10: 100%); herbicidal efficacy, Echinochloa crus-galli ([5]; 5g a.i./10a): 10 (10: 100%); herbicidal efficacy, Monochoria vaginalis ([6]; 1g a.i./10a): 10 (10: 100%); herbicidal efficacy, Monochoria vaginalis ([6]; 5g a.i./10a): 10 (10: 100%); phytotoxicity, Oryza sativa ([7]; 1g a.i./10a): 1 (1: 10% to less than 20%); phytotoxicity, Oryza sativa ([7]; 5g a.i./10a): 1 (1: 10% to less than 20%); herbicidal efficacy, Digitaria ciliaris ([8]; 5g a.i./10a): 10 (10: 100%); herbicidal efficacy, Digitaria ciliaris ([8]; 10g a.i./10a): 10 (10: 100%); herbicidal efficacy, Amaranthus retroflexus ([9]; 5g a.i./10a): 10 (10: 100%); herbicidal efficacy, Amaranthus retroflexus ([9]; 10g a.i./10a): 10 (10: 100%); herbicidal efficacy, Chenopodium album ([10]; 5g a.i./10a): 10 (10: 100%); herbicidal efficacy, Chenopodium album ([10]; 10g a.i./10a): 10 (10: 100%)
3 | CC1(C(=O)Nc2c(C#N)cnn2-c2nn3c(c2Cl)CCCC3)CC1 [Compound 3] |  |  |  |  |  |  | 10 (10: 100%) | 10 (10: 100%) | 
4 | N#Cc1cnn(-c2nn3c(c2Cl)CCCC3)c1NC(=O)C1CCC1 [Compound 4] |  |  |  |  |  |  | 10 (10: 100%) | 10 (10: 100%) | 
5 | N#Cc1cnn(-c2nn3c(c2Cl)CCCC3)c1NC(=O)C1CCCC1 [Compound 5] |  |  |  |  |  |  | 10 (10: 100%) | 10 (10: 100%) | 
6 | O=C(Nc1c([N+](=O)[O-])cnn1-c1nn2c(c1Cl)CCCC2)C1CCCC1 [Compound 6] | 9 (9: 90% to less than 100%) | 9 (9: 90% to less than 100%) | 10 (10: 100%) | 10 (10: 100%) | 9 (9: 90% to less than 100%) | 9 (9: 90% to less than 100%) | 9 (9: 90% to less than 100%) | 10 (10: 100%) | herbicidal efficacy, Scirpus juncoides ([4]; 1g a.i./10a): 9 (9: 90% to less than 100%); herbicidal efficacy, Scirpus juncoides ([4]; 5g a.i./10a): 9 (9: 90% to less than 100%); herbicidal efficacy, Echinochloa crus-galli ([5]; 1g a.i./10a): 10 (10: 100%); herbicidal efficacy, Echinochloa crus-galli ([5]; 5g a.i./10a): 10 (10: 100%); herbicidal efficacy, Monochoria vaginalis ([6]; 1g a.i./10a): 10 (10: 100%); herbicidal efficacy, Monochoria vaginalis ([6]; 5g a.i./10a): 10 (10: 100%); phytotoxicity, Oryza sativa ([7]; 1g a.i./10a): 0 (0 (exponent): 0% to less than 10% (growth inhibition rate)); phytotoxicity, Oryza sativa ([7]; 5g a.i./10a): 1 (1: 10% to less than 20%); herbicidal efficacy, Digitaria ciliaris ([8]; 5g a.i./10a): 10 (10: 100%); herbicidal efficacy, Digitaria ciliaris ([8]; 10g a.i./10a): 10 (10: 100%); herbicidal efficacy, Amaranthus retroflexus ([9]; 5g a.i./10a): 10 (10: 100%); herbicidal efficacy, Amaranthus retroflexus ([9]; 10g a.i./10a): 10 (10: 100%); herbicidal efficacy, Chenopodium album ([10]; 5g a.i./10a): 10 (10: 100%); herbicidal efficacy, Chenopodium album ([10]; 10g a.i./10a): 10 (10: 100%)
7 | N#Cc1cnn(-c2nn3c(c2Cl)CCCC3)c1NC(=O)C1CCCCC1 [Compound 7] |  |  |  |  |  |  | 10 (10: 100%) | 10 (10: 100%) | 
8 | O=C(CC1CC1)Nc1c([N+](=O)[O-])cnn1-c1nn2c(c1Cl)CCCC2 [Compound 8] | 9 (9: 90% to less than 100%) | 10 (10: 100%) | 10 (10: 100%) | 10 (10: 100%) | 10 (10: 100%) | 10 (10: 100%) | 9 (9: 90% to less than 100%) | 10 (10: 100%) | herbicidal efficacy, Scirpus juncoides ([4]; 1g a.i./10a): 9 (9: 90% to less than 100%); herbicidal efficacy, Scirpus juncoides ([4]; 5g a.i./10a): 10 (10: 100%); herbicidal efficacy, Echinochloa crus-galli ([5]; 1g a.i./10a): 9 (9: 90% to less than 100%); herbicidal efficacy, Echinochloa crus-galli ([5]; 5g a.i./10a): 10 (10: 100%); herbicidal efficacy, Monochoria vaginalis ([6]; 1g a.i./10a): 10 (10: 100%); herbicidal efficacy, Monochoria vaginalis ([6]; 5g a.i./10a): 10 (10: 100%); phytotoxicity, Oryza sativa ([7]; 1g a.i./10a): 0 (0 (exponent): 0% to less than 10% (growth inhibition rate)); phytotoxicity, Oryza sativa ([7]; 5g a.i./10a): 0 (0 (exponent): 0% to less than 10% (growth inhibition rate)); herbicidal efficacy, Digitaria ciliaris ([8]; 5g a.i./10a): 9 (9: 90% to less than 100%); herbicidal efficacy, Digitaria ciliaris ([8]; 10g a.i./10a): 10 (10: 100%); herbicidal efficacy, Amaranthus retroflexus ([9]; 5g a.i./10a): 10 (10: 100%); herbicidal efficacy, Amaranthus retroflexus ([9]; 10g a.i./10a): 10 (10: 100%); herbicidal efficacy, Chenopodium album ([10]; 5g a.i./10a): 10 (10: 100%); herbicidal efficacy, Chenopodium album ([10]; 10g a.i./10a): 10 (10: 100%)
9 | N#Cc1cnn(-c2nn3c(c2Cl)CCCC3)c1NC(=O)CC1CCCC1 [Compound 29] |  |  |  |  |  |  | 10 (10: 100%) | 10 (10: 100%) | 
10 | N#Cc1cnn(-c2nn3c(c2Cl)CCCC3)c1NC(=O)CCC1CCCC1 [Compound 30] |  |  |  |  |  |  | 10 (10: 100%) | 10 (10: 100%) | 
11 | N#Cc1cnn(-c2nn3c(c2Cl)CCCC3)c1NC(=O)CCC1CC=CCC1 (centres unmarked) [Compound 31] |  |  |  |  |  |  | 10 (10: 100%) | 10 (10: 100%) | 
